Patent US9921163B2, “Method and device for detecting analytes” (IMEC VZW, priority 2013, dated 2018)

Assay: SERS monitoring of boronic acid derivative binding to diol-modified SERS substrate (flow cell)
From the text: During the experiments, one type of gold nanostructured SERS substrates were applied. Hereto, a bare SiO2 substrate was cleaned prior to the deposition of polystyrene beads with a diameter of 100 nm (obtained from Thermo Fisher Scientific). Due to electrostatic forces, the nanoparticles form a closed-packed layer on the SiO2 substrate. Then, the substrate was carefully rinsed with H2O. Afterwards, a thin layer of Au (˜50 nm) was deposited onto the polystyrene-coated SiO2 substrate using sputter deposition. The as such obtained SERS substrates were cleaned with an aceton-H2O mixture and dried with a stream of N2. Additionally, the samples were cleaned using UV-O3 treatment for 15 min prior to the experiments.
The SERS substrates were immerged into a solution containing 1 mM thiolated glucose for 3 days at room temperature in the dark (i.e. 1-Thio-β-D-glucose sodium salt dihydrate obtained from Toronto Research Chemicals). […]
The SERS substrates functionalized with the thiolated glucose molecules were mounted into a home-made flow cell connected to a peristaltic pump system. […] The corresponding Raman signal was monitored using a Raman setup of LabRAM. […] FIG. 5 represents the SERS intensity monitored at 1075±1 cm^−1 using a time interval of 25 s. […] The response was also measured in real time as represented in FIG. 8. […]

OB(O)c1ccccc1 [PBA, Phenyl boronic acid]
SERS intensity at 1075±1 cm^−1 (PBA binding to immobilized thiolated glucose) (1 mM PBA in carbonate buffer, 785 nm, 0.5 mW, 25 s interval): an increase of the signal is obtained over time | SERS response of PBA interacting with immobilized thiolated glucose in presence of human serum albumin (human serum albumin 2000 mg/dl in carbonate mixed 1/1 with 1 mM PBA): a clear SERS response
